Data taken from patent US8476197B2, “Aminopropenoates as fungicides” (priority 2009, dated 2013).
Marks after values point to notes of the source that are not given here.

conditions: pH 2.3

| SMILES | Log P |
| --- | --- |
| CCOC(=O)C(C#N)=C(NC(C)CSC)c1cccnc1OC (stereo not shown) [Compound 687] | 2.96 |

same assay, conditions: pH 2.7

| SMILES | Log P |
| --- | --- |
| CCOC(=O)C(C#N)=C(NC(C(=O)OC)C(C)C)c1sccc1C(F)(F)F (stereo not shown) [Compound 659] | 3.62^[a] |
| CCOC(=O)C(C#N)=C(NC(C)C(=O)OC)c1cn(C)nc1C(F)F (stereo not shown) [Compound 673] | 2.31^[a] |
| CCOC(=O)C(C#N)=C(NC(C(=O)OC)C(C)C)c1cn(C)nc1C(F)F (stereo not shown) [Compound 675] | 2.84^[a] |
| CCOC(=O)C(C#N)=C(NC(C)C(=O)OCC)c1cn(C)nc1C(F)F (stereo not shown) [Compound 686] | 2.62^[a] |
| C=CC(COCc1ccccc1)NC(=C(C#N)C(=O)OCC)c1cn(C)nc1C(F)F (stereo not shown) [Compound 691] | 3.51^[a] |
| CCOC(=O)C(C#N)=C(NC(C)(C)C(=O)OC)c1sccc1Br [Compound 693] | 3.23^[a] |
| CCOC(=O)C(C#N)=C(NC(C)(C)C(=O)OC)c1cn(C)nc1C(F)F [Compound 696] | 2.51^[a] |
| CCOC(=O)C(C#N)=C(NC(C)C(N)=O)c1ncc(Cl)cc1Cl (stereo not shown) [Compound 699] | 2.01^[a] |
| CCOC(=O)C(C#N)=C(NC(C)(C)CSC)c1sccc1Br [Compound 701] | 3.73^[a] |
| CCOC(=O)C(C#N)=C(NC(C)(C)CSC)c1cn(C)nc1C(F)F [Compound 703] | 2.84^[a] |
| CCOC(=O)C(C#N)=C(NC(C)C(N)=O)c1cccnc1C(F)(F)F (stereo not shown) [Compound 705] | 1.91^[a] |
| CCOC(=O)C(C#N)=C(NC(C)C(=O)NC)c1cccnc1C(F)(F)F (stereo not shown) [Compound 706] | 2.05^[a] |
| CCOC(=O)C(C#N)=C(NC(C)C(N)=O)c1nc(SC)ncc1Br (stereo not shown) [Compound 709] | 2.13^[a] |
| CCOC(=O)C(C#N)=C(NC(C(=O)OC)C(C)C)c1cn(C)nc1OC (stereo not shown) [Compound 711] | 2.71^[a] |
| CCOC(=O)C(C#N)=C(NC(C(=O)OC)C(C)C)c1cc(Cl)sc1Cl (stereo not shown) [Compound 712] | 4.14^[a] |
| CCOC(=O)C(C#N)=C(NC(C)COC)c1ccsc1Br (stereo not shown) [Compound 714] | 3.21^[a] |
| CCOC(=O)C(C#N)=C(NC(C)C(=O)Nc1ccc2ccccc2c1)c1ccsc1Br (stereo not shown) [Compound 717] | 3.94^[a] |
| CCOC(=O)C(C#N)=C(NC(C)C(=O)NC)c1cc(Cl)ncc1Cl (stereo not shown) [Compound 720] | 2.19^[a] |
| CCOC(=O)C(C#N)=C(NC(C)C(N)=O)c1cc(Cl)ncc1Cl (stereo not shown) [Compound 721] | 2.64^[a] |
| CCOC(=O)C(C#N)=C(NC(C)C(N)=O)c1ccncc1Cl (stereo not shown) [Compound 722] | 1.65^[a] |
| CCOC(=O)C(C#N)=C(NC(C)C(=O)NC)c1ccncc1Cl (stereo not shown) [Compound 723] | 1.78^[a] |
| CCOC(=O)C(C#N)=C(NC(C)C(=O)NC)c1cccnc1C(F)F (stereo not shown) [Compound 724] | 1.62^[a] |
| CCNC(=O)C(C)NC(=C(C#N)C(=O)OCC)c1cccnc1Cl (stereo not shown) [Compound 728] | 2.1^[a] |
| CCOC(=O)C(C#N)=C(NC(C)C(N)=O)c1ccnc(Cl)c1Cl (stereo not shown) [Compound 729] | 1.88^[a] |
| CCOC(=O)C(C#N)=C(NC(C)C(=O)NC)c1ccnc(Cl)c1Cl (stereo not shown) [Compound 730] | 2.08^[a] |
| CCOC(=O)C(C#N)=C(NC(C)COCc1ccc(C(F)(F)F)cc1)c1cccnc1Cl (stereo not shown) [Compound 731] | 4.2^[a] |
| CCOC(=O)C(C#N)=C(NC(C(N)=O)C(C)C)c1cccnc1Cl (stereo not shown) [Compound 732] | 2.07^[a] |
| CCOC(=O)C(C#N)=C(NC(C)C(N)=O)c1ccncc1F (stereo not shown) [Compound 733] | 1.37^[a] |
| CCOC(=O)C(C#N)=C(NC(C)COC)c1sccc1Br (stereo not shown) [Compound 734] | 3.21^[a] |

Other lines, results leading:

| Log P | SMILES |
| --- | --- |
| 3.11^[a] | CCOC(=O)C(C#N)=C(NC(C)C(=O)OC)c1sccc1C(F)(F)F (stereo not shown) [Compound 657] |
| 2.62^[a] | COC(=O)C(C#N)=C(NC(C)C(=O)OC)c1sc(C)nc1C(F)(F)F (stereo not shown) [Compound 665] |
| 3.29^[a] | COC(=O)C(C#N)=C(NC(C(=O)OC)C(C)C)c1sc(C)nc1C(F)(F)F (stereo not shown) [Compound 667] |
| 2.94^[a] | CCOC(=O)C(C#N)=C(NC(C)C(=O)OC)c1sc(C)nc1C(F)(F)F (stereo not shown) [Compound 680] |
| 3.64^[a] | CCOC(=O)C(C#N)=C(NC(C(=O)OC)C(C)C)c1sc(C)nc1C(F)(F)F (stereo not shown) [Compound 682] |
| 3.31^[a] | CCOC(=O)C(C#N)=C(NC(C)C(=O)Nc1ccc2ccccc2c1)c1cn(C)nc1C(F)F (stereo not shown) [Compound 683] |
| 3.96^[a] | CCOC(=O)C(C#N)=C(NC(C)COc1c(C)cccc1C)c1cn(C)nc1C(F)F (stereo not shown) [Compound 684] |
| 2.41^[a] | CCOC(=O)C(C#N)=C(NC(C)COC)c1cn(C)nc1C(F)F (stereo not shown) [Compound 685] |
| 4.36^[a] | C=CC(COCc1ccccc1)NC(=C(C#N)C(=O)OCC)c1sccc1C(F)(F)F (stereo not shown) [Compound 688] |
| 4.31^[a] | C=CC(COCc1ccccc1)NC(=C(C#N)C(=O)OCC)c1sccc1Br (stereo not shown) [Compound 689] |
| 3.89^[a] | C=CC(COCc1ccccc1)NC(=C(C#N)C(=O)OC)c1sc(C)nc1C(F)(F)F (stereo not shown) [Compound 690] |
| 4.21^[a] | C=CC(COCc1ccccc1)NC(=C(C#N)C(=O)OCC)c1sc(C)nc1C(F)(F)F (stereo not shown) [Compound 692] |
| 3.37^[a] | CCOC(=O)C(C#N)=C(NC(C)(C)C(=O)OC)c1sccc1C(F)(F)F [Compound 694] |
| 2.9^[a] | COC(=O)C(C#N)=C(NC(C)(C)C(=O)OC)c1sc(C)nc1C(F)(F)F [Compound 695] |
| 3.23^[a] | CCOC(=O)C(C#N)=C(NC(C)(C)C(=O)OC)c1sc(C)nc1C(F)(F)F [Compound 697] |
| 1.97^[a] | CCOC(=O)C(C#N)=C(NC(C)C(N)=O)c1nc(Cl)ccc1Cl (stereo not shown) [Compound 698] |
| 3.8^[a] | CCOC(=O)C(C#N)=C(NC(C)(C)CSC)c1sccc1C(F)(F)F [Compound 700] |
| 3.27^[a] | COC(=O)C(C#N)=C(NC(C)(C)CSC)c1sc(C)nc1C(F)(F)F [Compound 702] |
| 3.62^[a] | CCOC(=O)C(C#N)=C(NC(C)(C)CSC)c1sc(C)nc1C(F)(F)F [Compound 704] |
| 1.1^[a] | CCOC(=O)C(C#N)=C(NC(C)CN)c1sccc1Br (stereo not shown) [Compound 707] |
| 3.82^[a] | CCOC(=O)C(C#N)=C(NC(C(=O)OC)C(C)C)c1sc(Cl)nc1Cl (stereo not shown) [Compound 710] |
| 3.09^[a] | CCOC(=O)C(C#N)=C(NC(C(=O)OC)C(C)C)c1cn(C)nc1C(F)(F)F (stereo not shown) [Compound 713] |
| 3.48^[a] | CCOC(=O)C(C#N)=C(NC(C(=O)OC)C(C)C)c1ccsc1Br (stereo not shown) [Compound 715] |
| 3.71^[a] | CCOC(=O)C(C#N)=C(NC(C(=O)OC)C(C)C)c1ccsc1Br (stereo not shown) [Compound 716] |
| 4.86^[a] | CCOC(=O)C(C#N)=C(NC(C)COc1c(C)cccc1C)c1ccsc1Br (stereo not shown) [Compound 718] |
| 2.94^[a] | C=Cc1nn(C)cc1C(NC(C(=O)OC)C(C)C)=C(C#N)C(=O)OCC (stereo not shown) [Compound 719] |
| 3.43^[a] | CCOC(=O)C(C#N)=C(NC(C(=O)OC)C(C)C)c1cn(C)cc1C(F)(F)F (stereo not shown) [Compound 726] |
| 1.8^[a] | CCOC(=O)C(C#N)=C(NC(C)C(N)=O)c1cnccc1C(F)(F)F (stereo not shown) [Compound 727] |
| 3.71^[a] | CCOC(=O)C(C#N)=C(NC(C)COc1ccc(C)cc1)c1cn(C)nc1C(F)F (stereo not shown) [Compound 735] |

same assay, conditions: pH 7.5

| SMILES | Log P |
| --- | --- |
| CCOC(=O)C(C#N)=C(NC(C)CSC)c1cccnc1OC (stereo not shown) [Compound 687] | 2.95 |
| CCOC(=O)C(C#N)=C(NC(C)C(N)=S)c1cccnc1Cl (stereo not shown) [Compound 708] | 1.87 |
